Earlier results on 4 molecules are cited in patent publication US12252709B2, “Culture media for culturing pluripotent stem cells in suspension” (Accellta Ltd., priority 2016, dated 2025).

Like-named read-outs stand apart in the source and are kept apart here.

Data set [1] has as its system hESCs. The settings on record: Matrigel matrix, seven days (Sato et al, 2004).
Data set [2] has as its system hESCs. The settings on record: for background differentiation: MATRIGEL matrix.

In the case of `O=C1Nc2cc(Br)ccc2/C1=C1/Nc2ccccc2/C1=N\O` [BIO, 6-bromoindirubin-3′-oxime], the “maintenance of hESC properties” value with hESCs [1] is “maintained hESC properties”.
For “bFGF: basic fibroblast growth factor, medium supplement”, the background differentiation with hESCs [2] (serum replacement, 40 ng/ml bFGF [Xu et al, 2005b]) was 28%.

B1: Flt-3 ligand: protein factor added to bFGF medium (protein, UniProt P49771 27-235, looked up)
Fms-related tyrosine kinase 3 …: TQDCSFQHSPISSDFAVKIRELSDYLLQDYPVTVASNLQDEELCGGLWRLVLAQRWMERLKTVAGSKMQGLLERVNTEIHFVTKCAFQPPPSCLRFVQTNISRLLQETSEQLVALKPWITRQNFSRCLELQCQPDSSTLPPPWSPRPLEATAPTAPQPPLLLLLLLPVGLLLLAAAWCLHWQRTRRRTPRPGEQVPPVPSPQDLLLVEH
Turning to B1, the differentiation in the data set on hESCs [2] (as before with 75 ng/ml of Flt-3 ligand added) is on record as 20%.

B2: Noggin: protein factor used with 40 ng/ml bFGF (protein, UniProt Q13253 28-232, looked up)
Noggin: QHYLHIRPAPSDNLPLVDLIEHPDPIFDPKEKDLNETLLRSLLGGHYDPGFMATSPPEDRPGGGGGAAGGAEDLAELDQLLRQRPSGAMPSEIKGLEFSEGLAQGKKQRLSKKLRRKLQMWLWSQTFCPVLYAWNDLGSRFWPRYVKVGSCFSKRSCSVPEGMVCKPSKSVHLTVLRWRCQRRGGQRCGWIPIQYPIISECKCSC
Turning to B2, the background differentiation in the data set on hESCs [2] (40 ng/ml bFGF and 0.5 μg/ml Noggin [Xu et al, 2005]) was 10%.
